Data: patent publication US11311012B1, “Bacterial control in fermentation systems” (Clean Chemistry, Inc., priority 2017, dated 2022)
Several values for one entry are separate records, joined by “and”; a condition that tells them apart may be missing. Equal values may be shown once. Blank lines part the entries; values can stand above or below the compound they belong to.

Experiments:
[1] = test system: yeast cells; assay type: cell-based, Saccharomyes cerevisiae and Schizosaccharomyces pombe
[2] = test system: SRB; assay type: cell-based, bacteria
[3] = test system: APB; assay type: cell-based, bacteria
[4] = test system: bacteria population in stationary phase; assay type: cell-based
[5] = ORP of oxidant solutions at pH 7; assay type: physicochemical; settings: 29 mM

SMILES: [O][Cl+][O-] [Chlorine Dioxide, chlorine dioxide]
Yeast activity vs untreated mash [1]: greater yeast activity

SMILES: CCCCCCCCCCCC[N+](C)(C)CCCCCCCCCCCC.[Br-] [DDAB, didodecyldimethylammonium bromide]
SRB [2]: 5 bottles and 6 bottles
APB [3]: 3 bottles and 4 bottles
ATP [4]: 185 pg/mL and 291 pg/mL
Effectiveness against bacteria in the stationary phase compared with peracetate oxidant [4]: less effective

ORP [5]: over 1.1 V (vs SHE)
SMILES: OCl [hypochlorous acid]

ORP [5]: about 0.5 V (vs SHE)
SMILES: OO [hydrogen peroxide]
